Measured values as given in paper PMC10313047, “During heat stress in Myxococcus xanthus, the CdbS PilZ domain protein, in concert with two PilZ-DnaK chaperones, perturbs chromosome organization and accelerates cell death” (PLOS Genetics, 2023).

Target: T1, His6-CdbS (Myxococcus xanthus, UniProt Q1D4C1)
T1 construct: gene MXAN_4328; full-length stand-alone PilZ protein (PilZ domain residues 7-82), N-terminal His6 tag (pET28a, pMS007), made in E. coli Arctic Express (DE3) RP
Experiment: bio-layer interferometry, streptavidin sensor, equilibrium one-site fit
Format: binding
Settings: labelled compound (biotinylated c-di-GMP immobilised on sensor); 50 mM Tris-HCl pH 7, 150 mM NaCl, 10% glycerol, 0.02% Tween-20

T1 sequence (Q1D4C1 entry or part of it): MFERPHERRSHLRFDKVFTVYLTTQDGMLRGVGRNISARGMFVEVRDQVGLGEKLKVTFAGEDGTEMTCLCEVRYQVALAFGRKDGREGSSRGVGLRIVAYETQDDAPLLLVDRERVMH

With `Nc1nc2c(ncn2[C@@H]2O[C@@H]3COP(=O)(O)O[C@H]4[C@@H](O)[C@H](n5cnc6c(=O)[nH]c(N)nc65)O[C@@H]4COP(=O)(O)O[C@H]3[C@H]2O)c(=O)[nH]1` [c-di-GMP] the Kd was “His6-CdbS^R9A did not detectably bind c-di-GMP”.
